Reference: ChEMBL document CHEMBL3885881, “DrugMatrix”

Species on record: Rattus norvegicus
Test: DrugMatrix - Regimen: Daily Repeat
Type: toxicity, organism-based, Sprague-Dawley
Design: regimen Daily Repeat, gender Male, age 6-8 weeks
Settings: in vivo, po, route oral GAVAGE, vehicle .5 % CMC; for ABSOLUTE BASOPHIL / ABSOLUTE EOSINOPHIL / ABSOLUTE LYMPHOCYTE / ABSOLUTE MONOCYTE / ABSOLUTE SEGMENTED NEUTROPHIL / BASOPHIL / EOSINOPHIL / ERYTHROCYTE COUNT / HEMATOCRIT / HEMOGLOBIN / LEUKOCYTE COUNT / LYMPHOCYTE / MEAN CORPUSCULAR HEMOGLOBIN / MEAN CORPUSCULAR HEMOGLOBIN CONCENTRATION / MEAN CORPUSCULAR VOLUME / MONOCYTE / NEUTROPHIL / NUCLEATED RED BLOOD CELLS / PLATELET COUNT: tissue Blood; for ALANINE AMINOTRANSFERASE / ALBUMIN / ALKALINE PHOSPHATASE / ASPARTATE AMINOTRANSFERASE / BLOOD UREA NITROGEN / CARBON DIOXIDE / CHLORIDE / CHOLESTEROL / CREATINE PHOSPHOKINASE / CREATININE / GLUCOSE / LACTATE DEHYDROGENASE / LIPASE / PHOSPHORUS / POTASSIUM / SODIUM / TOTAL BILIRUBIN / TOTAL PROTEIN / URIC ACID: tissue Plasma
[1] = 0 mg/kg, 72 h, dose level Control, time 3 day
[2] = 0 mg/kg, 120 h, dose level Control, time 5 day
[3] = 1 mg/kg, 72 h, dose level Low, time 3 day

## CCOc1nc2cccc(C(=O)O)c2n1Cc1ccc(-c2ccccc2-c2nnn[nH]2)cc1
[1]
  ABSOLUTE BASOPHIL: 0 CELLS/uL
  ABSOLUTE EOSINOPHIL: 35.67 CELLS/uL
  ABSOLUTE LYMPHOCYTE: 9125.17 CELLS/uL
  ABSOLUTE MONOCYTE: 50.17 CELLS/uL
  ABSOLUTE SEGMENTED NEUTROPHIL: 722.33 CELLS/uL
  BASOPHIL: 0%
  EOSINOPHIL: 0.33%
  ERYTHROCYTE COUNT: 5.35 x10E6/uL
  HEMATOCRIT: 33.58%
  HEMOGLOBIN: 13.35 G/DL
  LEUKOCYTE COUNT: 9.93 x10E3/uL
  LYMPHOCYTE: 91.67%
  MEAN CORPUSCULAR HEMOGLOBIN: 25 pg
  MEAN CORPUSCULAR HEMOGLOBIN CONCENTRATION: 39.8 G/DL
  MEAN CORPUSCULAR VOLUME: 62.77 fL
  MONOCYTE: 0.67%
  NEUTROPHIL: 7.33%
  NUCLEATED RED BLOOD CELLS: 0 /100WBC
  PLATELET COUNT: 866.17 x10E3/uL
  ALANINE AMINOTRANSFERASE: 57.17 u/L
  ALBUMIN: 4.22 G/DL
  ALKALINE PHOSPHATASE: 391 u/L
  ASPARTATE AMINOTRANSFERASE: 95.17 u/L
  BLOOD UREA NITROGEN: 13.67 mg/dL
  CARBON DIOXIDE: 30 mmol/L
  CHLORIDE: 102.5 MEQ/L
  CHOLESTEROL: 72 mg/dL
  CREATINE PHOSPHOKINASE: 485.67 u/L
  CREATININE: 0.27 mg/dL
  GLUCOSE: 152 mg/dL
  LACTATE DEHYDROGENASE: 372.67 u/L
  LIPASE: 9.83 u/L
  PHOSPHORUS: 12.47 mg/dL
  POTASSIUM: 6.81 MEQ/L
  SODIUM: 144.1 MEQ/L
  TOTAL BILIRUBIN: 0.23 mg/dL
  TOTAL PROTEIN: 5.93 G/DL
  URIC ACID: 1.9 mg/dL
[2]
  ABSOLUTE BASOPHIL: 0 CELLS/uL
  ABSOLUTE EOSINOPHIL: 67.33 CELLS/uL
  ABSOLUTE LYMPHOCYTE: 11419.17 CELLS/uL
  ABSOLUTE MONOCYTE: 203.17 CELLS/uL
  ABSOLUTE SEGMENTED NEUTROPHIL: 1327 CELLS/uL
  BASOPHIL: 0%
  EOSINOPHIL: 0.5%
  ERYTHROCYTE COUNT: 5.65 x10E6/uL
  HEMATOCRIT: 35.3%
  HEMOGLOBIN: 13.98 G/DL
  LEUKOCYTE COUNT: 13.02 x10E3/uL
  LYMPHOCYTE: 88%
  MEAN CORPUSCULAR HEMOGLOBIN: 24.78 pg
  MEAN CORPUSCULAR HEMOGLOBIN CONCENTRATION: 39.63 G/DL
  MEAN CORPUSCULAR VOLUME: 62.58 fL
  MONOCYTE: 1.33%
  NEUTROPHIL: 10.17%
  NUCLEATED RED BLOOD CELLS: 0 /100WBC
  PLATELET COUNT: 1213.83 x10E3/uL
  ALANINE AMINOTRANSFERASE: 49.67 u/L
  ALBUMIN: 4.28 G/DL
  ALKALINE PHOSPHATASE: 362.33 u/L
  ASPARTATE AMINOTRANSFERASE: 99 u/L
  BLOOD UREA NITROGEN: 20.67 mg/dL
  CARBON DIOXIDE: 26.33 mmol/L
  CHLORIDE: 102 MEQ/L
  CHOLESTEROL: 63.83 mg/dL
  CREATINE PHOSPHOKINASE: 481.83 u/L
  CREATININE: 0.21 mg/dL
  GLUCOSE: 158 mg/dL
  LACTATE DEHYDROGENASE: 656.33 u/L
  LIPASE: 10.67 u/L
  PHOSPHORUS: 12.27 mg/dL
  POTASSIUM: 6.17 MEQ/L
  SODIUM: 143.35 MEQ/L
  TOTAL BILIRUBIN: 0.17 mg/dL
  TOTAL PROTEIN: 6.13 G/DL
  URIC ACID: 1.48 mg/dL
[3]
  ABSOLUTE BASOPHIL: 0 CELLS/uL
  ABSOLUTE EOSINOPHIL: 0 CELLS/uL
  ABSOLUTE LYMPHOCYTE: 10188.33 CELLS/uL
  ABSOLUTE MONOCYTE: 75.33 CELLS/uL
  ABSOLUTE SEGMENTED NEUTROPHIL: 1069.67 CELLS/uL
  BASOPHIL: 0%
  EOSINOPHIL: 0%
  ERYTHROCYTE COUNT: 5.49 x10E6/uL
  HEMATOCRIT: 34.4%
  HEMOGLOBIN: 13.73 G/DL
  LEUKOCYTE COUNT: 11.33 x10E3/uL
  LYMPHOCYTE: 89.67%
  MEAN CORPUSCULAR HEMOGLOBIN: 25.03 pg
  MEAN CORPUSCULAR HEMOGLOBIN CONCENTRATION: 39.93 G/DL
  MEAN CORPUSCULAR VOLUME: 62.7 fL
  MONOCYTE: 0.67%
  NEUTROPHIL: 9.67%
  NUCLEATED RED BLOOD CELLS: 0 /100WBC
  PLATELET COUNT: 1183.67 x10E3/uL
  ALANINE AMINOTRANSFERASE: 53.67 u/L
  ALBUMIN: 4.23 G/DL
  ALKALINE PHOSPHATASE: 410.67 u/L
  ASPARTATE AMINOTRANSFERASE: 90 u/L
  BLOOD UREA NITROGEN: 16.67 mg/dL
  CARBON DIOXIDE: 29 mmol/L
  CHLORIDE: 102.67 MEQ/L
  CHOLESTEROL: 81 mg/dL
  CREATINE PHOSPHOKINASE: 371 u/L
  CREATININE: 0.23 mg/dL
  GLUCOSE: 155.67 mg/dL
  LACTATE DEHYDROGENASE: 328 u/L
  LIPASE: 8 u/L
  PHOSPHORUS: 12.13 mg/dL
  POTASSIUM: 6.17 MEQ/L
  SODIUM: 143.6 MEQ/L
  TOTAL BILIRUBIN: 0.2 mg/dL
  TOTAL PROTEIN: 5.9 G/DL
  URIC ACID: 1.6 mg/dL
